Results: patent US20100190824A1, “Novel Substituted Piperidones as HSP Inducers” (priority 2007, published 2010)

How the values were obtained:
[1] = system: rat orthotopic liver transplantation model; conditions: donors treated; with vehicle all recipients died; cited from earlier work
injured motoneurones = conditions: cited from earlier work
[2] = system: permeability of blood brain barrier; conditions: vascular insult evoked by sub-arachnoidal autologous blood; cited from earlier work
[3] = system: streptozotocin-induced neuropathy; conditions: cited from earlier work
HSP70b mRNA = assay: Cellular expression of HSP-70 mRNA in primary mixed neurons (real-time PCR); type: cell-based; conditions: fold induction of HSP70b mRNA relative to vehicle treated control; primary mixed neurons from neonatal rat cerebellum; 4 hours; normalized to 18S rRNA
Procedure: Experiments set forth in this section were conducted to determine whether the compounds of the present invention are able to elevate the expression of HSP-70 gene in cells.
Hela cell-line or primary mixed neurons derived from neonatal rat cerebellum were employed. Induction was carried out for the indicated dose(s) for 4 hours duration and total RNA was isolated. Expression of HSP70b mRNA along-with expression of 18S rRNA was monitored by real-time PCR. HSP70b mRNA expression was normalized relative to the expression of 18S rRNA.
The results for test compounds were expressed as fold induction of HSP-70 mRNA relative to vehicle treated control and are as shown in Table 2 & 3.

TNF-α mRNA = assay: Inhibition of LPS-induced TNF-α expression in PMA differentiated THP-1 cells; type: cell-based, Human; conditions: LPS (1 ug/ml) and compound for 4 hours, LPS alone as 100%
Procedure: The purpose of the present study was to determine the inhibition of lipopolysaccharide(LPS)-induced TNF-α expression in phorbol merstyl ester (PMA) differentiated THP-1 cells.
Human monocytic leukaemia cell line (THP-1), differentiated into macrophage-like cells by PMA treatment was employed. Differentiated cells were treated with either LPS (1 ug/ml) alone or with LPS (1 ug/ml) and compound for 4 hours. Total RNA was isolated and expression of TNF-αmRNA along-with expression of 18S rRNA was monitored by real-time PCR. TNF-α mRNA expression was normalized relative to the expression of 18S rRNA Considering TNF-α expression for cells treated with LPS alone as 100%; the results for test compounds were expressed as % inhibition of TNF-α expression and are as shown in Table 4

male Sprague Dawley rats = assay: Neuroprotective activity, transient cerebral ischemia (intraluminal suture occlusion); type: in vivo, rat
Procedure: Transient cerebral ischemia (for 2 hit) was induced in male Sprague Dawley rats of 240-270 g body weight under halothane anaesthesia by the intraluminal suture occlusion technique—inserting a 3-0 polyamide suture from proximal external carotid artery into the lumen of internal carotid artery (Longa E Z. et al. Stroke 20: 84-91; 1989). During the entire surgical procedure for the induction of stroke, the body temperature of the animal was maintained at 37° C., using a homoeothermic blanket. At the end of 2 hrs the suture was removed for reperfusion. The test compound was administered to animals at 8th hour post initiation of occlusion and subsequently at specified interval. At the end of 7 days all the animals were sacrificed and infarct was characterized after staining with triphenyl tetrazolium chloride (TTC). The images of the stained slices were captured using a scanner and was analyzed for infarct size and edema using Scion image software. Neurological scores were obtained at different time points after surgical recovery and improvement was assessed after reperfusion by calculating the percentage change from baseline scores (scores during ischemia).

In the case of `CC(=O)CCC=C(C)CC/C=C(\C)CC/C=C(\C)CCC=C(C)C` (mixture of isomers) [Geranylgeranyl acetone], the “7-day survival of the recipients” value [1] is listed as roughly 90%.

For `[O-][n+]1cccc(/C(Cl)=N/OC[C@H](O)CN2CCCCC2)c1` [BRX-220], the motoneurones survived (injured motoneurones; 14 days after injury, 21% in vehicle group) is given as 39% and the motoneurons survived (injured motoneurones; at 10 weeks, 15% in untreated group) is given as 42%.

For `OC(CO/N=C(\Cl)c1cccnc1)CN1CCCCC1` (stereo not shown) [Bimoclomol], the “reduction of size of cerebral tissue stained with Evans blue leakage” value [2] is given as 39%, the “reduction of nerve conduction slowing, motor” value [3] is given as 38% and the “reduction of nerve conduction slowing, sensory” value [3] is given as 42%. The “retardation of elevated ischemic resistance” value [3] was 71%.

With `COc1ccc(CC2N(C(=O)Nc3c(C(C)C)cccc3C(C)C)CC(=Cc3ccccn3)C(=O)C2(C)C)cc1` (stereo not shown) [Compound 68, 2-(4-Methoxy-benzyl)-3,3-dimethyl-4-oxo-5-[1-pyridin-2-yl-methylidene]-piperidine-1-carboxylic acid (2,6-diisopropyl-phenyl)-amide] the “HSP Induction in mixed neuron” value (HSP70b mRNA) was “(++++) (>16 fold)”, the “TNF-alpha Inhibition” value (TNF-α mRNA) was “(++++) (>80%)” and the “% reduction Edema” value (male Sprague Dawley rats; i.p. 15.2 mg/kg, multiple dose, from 8th hour post initiation of occlusion, 2 h ischemia, sacrificed at 7 days) was 51.0%. For the same molecule, the “% reduction Infarct” value (male Sprague Dawley rats; i.p. 15.2 mg/kg, multiple dose, from 8th hour post initiation of occlusion, 2 h ischemia, sacrificed at 7 days, TTC staining) was 30.0%, the “% improvement Mean Neurological Score” value (male Sprague Dawley rats; i.p. 15.2 mg/kg, multiple dose, percentage change from baseline scores (scores during ischemia)) was 61.1% and the “neuroprotective activity in an animal model of cerebral ischemia” value (male Sprague Dawley rats; result in words) was “reduced infarct size and brain edema with improvement in neurological deficit”.
